Source: US8470810B2, “Heterocyclic compounds suitable for treating disorders that respond to modulation of the dopamine D3 receptor” (Abbott GmbH & Co. KG, priority 2004, dated 2013)

How the values were obtained:
[1] = target: T1, human dopamine D3 receptors (Homo sapiens, UniProt P35462); assay: Dopamine D3 receptor binding, displacement of [125I]-iodosulpride; settings: for Ki: membranes of HEK-293 cells stably expressing human D3, 0.1 nM [125I]-iodosulpride, 25° C., 60 minutes; for Ki(D2)*/Ki(D3)*: selectivity ratio of the receptor binding constants D2 over D3
T1 construct: expressed in transfected cells
Procedure: (§1) The substance to be tested was either dissolved in methanol/Chremophor® (BASFAG) or in dimethyl sulfoxide and then diluted with water to the desired concentration.
(§2) Each assay mixture was run in triplicate.
The incubation buffer contained 50 mM tris, 120 mM NaCl, 5 mM KCl, 2 mM CaCl2, 2 mM MgCl2 and 0.1% bovine serum albumin, 10 μM quinolone and 0.1% ascorbic acid (prepared fresh daily). The buffer was adjusted to pH 7.4 with HCl.
(§3) After having been incubated at 25° C. for 60 minutes, the assay mixtures were filtered through a Whatman GF/B glass fiber filter under vacuum using a cell collecting device. The filters were transferred to scintillation viols using a filter transfer system. After 4 ml of Ultima Gold® (Packard) have been added, the samples were shaken for one hour and the radioactivity was then counted in a Beta-Counter (Packard, Tricarb 2000 or 2200CA). The cpm values were converted into dpm using a standard quench series and the program belonging to the instrument.
(§4) The inhibition curves were analyzed by means of iterative nonlinear regression analysis using the Statistical Analysis System (SAS) which is similar to the “LIGAND” program described by Munson and Rodbard.
(§5) The results of the receptro binding studies are expressed as receptor binding constants Ki(D2) and Ki(D3), respectively, as herein before described, and given in table 6.

[2] = target: T2, human dopamine D2L receptors (long isoform) (Homo sapiens, UniProt P14416); assay: Dopamine D2L receptor binding, displacement of [125I] iodospiperone; settings: membranes of HEK-293 cells stably expressing human D2L; 0.01 nM [125I] iodospiperone; 25° C., 60 minutes; read-out: Ki(D2)*
T2 construct: expressed in transfected cells
Procedure: as §1, §2
The incubation buffer contained 50 mM tris, 120 mM NaCl, 5 mM KCl, 2 mM CaCl2, 2 mM MgCl2 and 0.1% bovine serum albumin. The buffer was adjusted to pH 7.4 with HCl.
as §3, §4, §5

T1 sequence (P35462 whole entry): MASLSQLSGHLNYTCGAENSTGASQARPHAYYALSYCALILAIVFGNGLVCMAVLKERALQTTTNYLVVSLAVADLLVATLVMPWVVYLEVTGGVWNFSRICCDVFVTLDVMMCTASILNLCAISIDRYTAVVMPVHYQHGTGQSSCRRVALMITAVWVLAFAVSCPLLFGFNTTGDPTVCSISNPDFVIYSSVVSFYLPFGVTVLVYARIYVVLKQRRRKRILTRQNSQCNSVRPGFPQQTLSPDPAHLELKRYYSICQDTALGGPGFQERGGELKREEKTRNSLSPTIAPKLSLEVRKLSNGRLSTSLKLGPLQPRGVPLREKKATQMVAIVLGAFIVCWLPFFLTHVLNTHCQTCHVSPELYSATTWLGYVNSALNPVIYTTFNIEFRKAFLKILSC
T2 sequence (P14416 whole entry, canonical isoform): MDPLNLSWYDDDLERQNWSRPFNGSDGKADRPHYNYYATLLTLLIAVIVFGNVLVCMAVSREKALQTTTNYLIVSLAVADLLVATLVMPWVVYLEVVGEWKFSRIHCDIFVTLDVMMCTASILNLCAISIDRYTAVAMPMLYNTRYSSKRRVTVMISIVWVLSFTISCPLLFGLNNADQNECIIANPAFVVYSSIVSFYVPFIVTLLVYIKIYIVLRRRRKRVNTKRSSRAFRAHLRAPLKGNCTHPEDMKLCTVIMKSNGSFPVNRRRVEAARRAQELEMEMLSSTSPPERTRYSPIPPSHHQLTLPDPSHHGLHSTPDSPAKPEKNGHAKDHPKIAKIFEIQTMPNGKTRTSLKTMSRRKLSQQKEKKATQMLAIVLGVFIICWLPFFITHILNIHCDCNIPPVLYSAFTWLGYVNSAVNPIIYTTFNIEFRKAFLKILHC

Q: For `CCCN1CC[C@@H](c2ccc(NS(=O)(=O)c3ccc(-c4cnn(C)c4)cc3)cc2)C1` [Example 118, 4-(1-Methyl-1H-pyrazol-4-yl)-N-[4-((S)-1-propyl-pyrrolidin-3-yl)-phenyl]-benzenesulfonamide], which Ki [1] is on record?
A: 36.6 nM

Q: What about the “Ki(D2)*/Ki(D3)*” value [1] of the same compound?
A: 32

Q: And the Ki [2]?
A: 1170 nM

Q: `CCCN1CC[C@@H](c2ccc(NS(=O)(=O)c3cc(F)c(Br)cc3F)cc2)C1` [Example 34] was tested. Which Ki [1] did it give?
A: 5.1 nM

Q: And the “Ki(D2)*/Ki(D3)*” value [1]?
A: 34

Q: And the Ki [2]?
A: 174 nM

Q: Which Ki [1] does the source give for `CCCN1CC[C@@H](c2ccc(NS(=O)(=O)c3ccc(CC(C)C)cc3)cc2)C1.Cl` [Example 35, 4-Isobutyl-N-[4-((S)-1-propyl-pyrrolidin-3-yl)-phenyl]-benzenesulfonamide hydrochloride] here?
A: 0.3 nM

Q: What about the “Ki(D2)*/Ki(D3)*” value [1] of the same compound?
A: 24

Q: And the Ki [2]?
A: 7.4 nM

Q: Which Ki [1] does the source give for `CCCN1CC[C@@H](c2ccc(NS(=O)(=O)c3ccc(-c4ccon4)s3)cc2)C1` [Example 81, 5-Isoxazol-3-yl-thiophene-2-sulfonic acid [4-((S)-1-propyl-pyrrolidin-3-yl)-phenyl]-amide] here?
A: 31.3 nM

Q: What about the “Ki(D2)*/Ki(D3)*” value [1] of the same compound?
A: 37

Q: And the Ki [2]?
A: 1160 nM

Q: With `CCCN1CC(c2ccc(NS(=O)(=O)c3ccc(-c4cnco4)cc3)cc2)C1` [Example 55, 4-Oxazol-5-yl-N-[4-(1-propyl-azetidin-3-yl)-phenyl]-benzenesulfonamide] as the compound, how does the Ki [1] read?
A: 7.11 nM

Q: And the “Ki(D2)*/Ki(D3)*” value [1]?
A: 165

Q: What about the Ki [2] of the same compound?
A: 1170 nM

Q: For `C=CCN1CC[C@H](c2ccc(NS(=O)(=O)c3ccc(C4CC4(F)F)cc3)cc2)C1` (stereo partly drawn) [Example 90, N-[4-((R)-1-Allyl-pyrrolidin-3-yl)-phenyl]-4-(2,2-difluoro-cyclopropyl)benzenesulfonamide], which Ki [1] is on record?
A: 11 nM

Q: What about the “Ki(D2)*/Ki(D3)*” value [1] of the same compound?
A: 25

Q: What about the Ki [2] of the same compound?
A: 280 nM

Q: `CC(C)c1ccc(S(=O)(=O)Nc2ccc([C@@H]3CCN(C)C3)cc2)cc1` [Example 85, 4-Isopropyl-N-[4-((S)-1-methyl-pyrrolidin-3-yl)-phenyl]-benzenesulfonamide] was tested. Which Ki [1] did it give?
A: 0.57 nM

Q: What about the “Ki(D2)*/Ki(D3)*” value [1] of the same compound?
A: 32

Q: And the Ki [2]?
A: 18.5 nM

Q: What does the source list for `CCCN1CC[C@@H](c2ccc(NS(=O)(=O)c3ccc(Br)c(F)c3)cc2)C1` [Example 15, 4-Bromo-3-fluoro-N-[4-((S)-1-propyl-pyrrolidin-3-yl)-phenyl]-benzenesulfonamide]?
A: Ki [1]: 1.9 nM; Ki(D2)*/Ki(D3)* [1]: 39; Ki [2]: 74 nM

Q: What does the source list for `CCCN1CC(c2ccc(NS(=O)(=O)c3ccc(Br)cc3)cc2)C1` [Example 58, 4-Bromo-N-[4-(1-propyl-azetidin-3-yl)-phenyl]-benzenesulfonamide]?
A: Ki [1]: 39.8 nM; Ki [2]: 2940 nM

Q: Which results are given for `CC(C)c1ccc(S(=O)(=O)Nc2ccc([C@@H]3CCNC3)cc2)cc1` [Example 18, 4-Isopropyl-N-[4-((S)-pyrrolidin-3-yl)-phenyl]-benzenesulfonamide]?
A: Ki [1]: 2.3 nM; Ki(D2)*/Ki(D3)* [1]: 39; Ki [2]: 90 nM

Q: For `CCCN1CC[C@@H](c2ccc(NS(=O)(=O)c3ccc(C(F)(F)F)cc3)cc2)C1.Cl` [Example 8, 4-Trifluoromethyl-N-[4-((S)-1-propyl-pyrrolidin-3-yl)-phenyl]-benzenesulfonamide hydrochloride], which Ki [1] is on record?
A: 4.1 nM

Q: And the “Ki(D2)*/Ki(D3)*” value [1]?
A: 57

Q: And the Ki [2]?
A: 235 nM

Q: Which results are given for `CCCCOc1ccc(S(=O)(=O)Nc2ccc([C@@H]3CCN(CCC)C3)cc2)cc1` [Example 40, 4-Butyloxy-N-[4-((S)-1-propyl-pyrrolidin-3-yl)-phenyl]-benzenesulfonamide]?
A: Ki [1]: 0.46 nM; Ki(D2)*/Ki(D3)* [1]: 40; Ki [2]: 18.2 nM

Q: Which Ki [1] does the source give for `CCCN1CC[C@@H](c2ccc(NS(=O)(=O)c3ccc(C4CC4(F)F)cc3)cc2)C1` (stereo partly drawn) [Example 41, 4-(2,2-Difluorocyclopropyl)-N-[4-((S)-1-propyl-pyrrolidin-3-yl)-phenyl]-benzenesulfonamide] here?
A: 0.44 nM

Q: What about the “Ki(D2)*/Ki(D3)*” value [1] of the same compound?
A: 30

Q: And the Ki [2]?
A: 13.5 nM

Q: `CCCN1CC[C@@H](c2ccc(NS(=O)(=O)c3ccc(C(C)C)cc3F)cc2)C1` [Example 21, 2-Fluoro-4-isopropyl-N-[4-((S)-1-propyl-pyrrolidin-3-yl)-phenyl]-benzenesulfonamide] was tested. Which Ki [1] did it give?
A: 0.4 nM

Q: And the “Ki(D2)*/Ki(D3)*” value [1]?
A: 27

Q: And the Ki [2]?
A: 11 nM

Q: Which results are given for `CCCN1CC[C@@H](c2ccc(NS(=O)(=O)c3ccc(-n4cccn4)cc3)cc2)C1` [Example 69, N-[4-((S)-1-Propyl-pyrrolidin-3-yl)-phenyl]-4-pyrazol-1-yl-benzenesulfonamide]?
A: Ki [1]: 2.51 nM; Ki(D2)*/Ki(D3)* [1]: 36; Ki [2]: 90.3 nM

Q: Which Ki [1] does the source give for `CCCN1CC(c2ccc(NS(=O)(=O)c3ccc(C(C)C)cc3)cn2)C1` [Example 46, 4-Isopropyl-N-[6-(1-propyl-azetidin-3-yl)-pyridin-3-yl]-benzenesulfonamide] here?
A: 49 nM

Q: And the “Ki(D2)*/Ki(D3)*” value [1]?
A: 37

Q: And the Ki [2]?
A: 1830 nM

Q: For `CCCN1CC[C@@H](c2ccc(NS(=O)(=O)c3ccc(OC(F)(F)F)cc3)cc2)C1.Cl` [Example 7, 4-Trifluoromethoxy-N-[4-((S)-1-propyl-pyrrolidin-3-yl)-phenyl]-benzenesulfonamide hydrochloride], which Ki [1] is on record?
A: 3.5 nM

Q: And the “Ki(D2)*/Ki(D3)*” value [1]?
A: 61

Q: And the Ki [2]?
A: 212 nM

Q: Which Ki [1] does the source give for `CC(C)c1ccc(S(=O)(=O)Nc2ccc([C@@H]3CCN(CC4CC4)C3)cc2)cc1` [Example 94, N-[4-((S)-1-Cyclopropylmethyl-pyrrolidin-3-yl)-phenyl]-4-isopropyl-benzenesulfonamide] here?
A: 0.23 nM

Q: What about the “Ki(D2)*/Ki(D3)*” value [1] of the same compound?
A: 21

Q: What about the Ki [2] of the same compound?
A: 4.7 nM

Q: Which results are given for `C=CCN1CC[C@@H](c2ccc(NS(=O)(=O)c3ccc(OC(F)(F)F)cc3)cc2)C1` [Example 101, N-[4-((S)-1-Allyl-pyrrolidin-3-yl)-phenyl]-4-trifluoromethoxy-benzenesulfonamide]?
A: Ki [1]: 3.7 nM; Ki(D2)*/Ki(D3)* [1]: 73; Ki [2]: 268 nM

Q: Which results are given for `CCCN1CCC(c2ccc(NS(=O)(=O)c3ccc(C(C)C)cc3)cc2F)C1.Cl` (centres unmarked) [Example 130, N-[3-Fluoro-4-(1-propyl-pyrrolidin-3-yl)-phenyl]-4-isopropyl-benzenesulfonamide, hydrochloride]?
A: Ki [1]: 0.52 nM; Ki(D2)*/Ki(D3)* [1]: 16; Ki [2]: 8.5 nM

Q: For `CCCN1CC[C@@H](c2ccc(NS(=O)(=O)c3ccc(CC)cc3)cc2)C1.Cl` [Example 6, 4-Ethyl-N-[4-((S)-1-propyl-pyrrolidin-3-yl)-phenyl]-benzenesulfonamide hydrochloride], which Ki [1] is on record?
A: 0.45 nM

Q: What about the “Ki(D2)*/Ki(D3)*” value [1] of the same compound?
A: 45

Q: And the Ki [2]?
A: 20.1 nM

Q: Which Ki [1] does the source give for `CCCN1CC[C@@H](c2ccc(NS(=O)(=O)c3ccc(C(C)C(F)(F)F)cc3)cc2)C1` (stereo partly drawn) [Example 78, N-[4-((S)-1-Propyl-pyrrolidin-3-yl)-phenyl]-4-(2,2,2-trifluoro-1-methyl-ethyl)benzenesulfonamide] here?
A: 1.4 nM

Q: What about the “Ki(D2)*/Ki(D3)*” value [1] of the same compound?
A: 30

Q: And the Ki [2]?
A: 41.9 nM

Q: How did the Ki [1] turn out when `CCN1CC[C@@H](c2ccc(NS(=O)(=O)c3ccc(C(C)C)cc3)cc2)C1` [Example 84, 4-Isopropyl-N-[4-((S)-1-ethyl-pyrrolidin-3-yl)-phenyl]-benzenesulfonamide] was run?
A: 0.95 nM

Q: What about the “Ki(D2)*/Ki(D3)*” value [1] of the same compound?
A: 17

Q: And the Ki [2]?
A: 16.2 nM

Q: `CCCN1CC(c2ccc(NS(=O)(=O)c3ccc(C(C)C(F)(F)F)cc3)cc2)C1` (centres unmarked) [Example 63, N-[4-(1-Propyl-azetidin-3-yl)-phenyl]-4-(2,2,2-trifluoro-1-methyl-ethyl)benzenesulfonamide] was tested. Which Ki [1] did it give?
A: 5.75 nM

Q: And the “Ki(D2)*/Ki(D3)*” value [1]?
A: 113

Q: What about the Ki [2] of the same compound?
A: 647 nM

Q: Which Ki [1] does the source give for `CCCN1CC[C@@H](c2ccc(NS(=O)(=O)c3ccc([C@H](C)CF)cc3)cc2)C1` [Example 87, 4-((S)-2-Fluoro-1-methyl-ethyl)-N-[4-((S)-1-propyl-pyrrolidin-3-yl)-phenyl]-benzenesulfonamide] here?
A: 0.55 nM

Q: What about the “Ki(D2)*/Ki(D3)*” value [1] of the same compound?
A: 37

Q: What about the Ki [2] of the same compound?
A: 20.5 nM

Q: For `CC(=O)O.COc1cc(C2CCNC2)ccc1NS(=O)(=O)c1ccc(C(C)C)cc1` (centres unmarked) [Example 135, 4-Isopropyl-N-(2-methoxy-4-pyrrolidin-3-yl-phenyl)-benzenesulfonamide, acetate], which Ki [1] is on record?
A: 0.85 nM

Q: What about the “Ki(D2)*/Ki(D3)*” value [1] of the same compound?
A: 17

Q: Which results are given for `C=CCN1CCC(c2ccc(NS(=O)(=O)c3ccc(C(C)C)cc3)c(OC)c2)C1.Cl` (centres unmarked) [Example 137, N-[4-(1-Allyl-pyrrolidin-3-yl)-2-methoxy-phenyl]-4-isopropyl-benzenesulfonamide, hydrochloride]?
A: Ki [1]: 0.36 nM; Ki(D2)*/Ki(D3)* [1]: 12

Q: Which results are given for `CCCN1CCC(c2ccc(NS(=O)(=O)c3ccc(C(C)C)cc3)c(F)c2)C1.Cl` (centres unmarked) [Example 134, N-[2-Fluoro-4-(1-propyl-pyrrolidin-3-yl)-phenyl]-4-isopropyl-benzenesulfonamide, hydrochloride]?
A: Ki [1]: 0.76 nM; Ki(D2)*/Ki(D3)* [1]: 13

Q: With `CCCN1CC(c2ccc(NS(=O)(=O)c3ccc(CCC(F)(F)F)cc3)cc2)C1` [Example 61, N-[4-(1-Propyl-azetidin-3-yl)-phenyl]-4-(3,3,3-trifluoro-propyl)-benzenesulfonamide] as the compound, how does the Ki [1] read?
A: 21.3 nM

Q: Which Ki [1] does the source give for `CCCN1CCC(c2ccc(NS(=O)(=O)c3ccc(C(C)C)cc3)c(OC)c2)C1.Cl` (centres unmarked) [Example 136, 4-Isopropyl-N-[2-methoxy-4-(1-propyl-pyrrolidin-3-yl)-phenyl]-benzenesulfonamide, hydrochloride] here?
A: 0.27 nM

Q: What about the “Ki(D2)*/Ki(D3)*” value [1] of the same compound?
A: 6
